# Measured values: US6683103B2, “Sulfonamides for treatment of endothelin-mediated disorders” (Texas Biotechnology Corporation, priority 1997, dated 2004)
# Where two headings read alike, the source gives them in different places.
# Columns and labels:
# [1] = target: T1, human ETA receptors (Homo sapiens, UniProt P25101); assay: Binding Test #1: inhibition of 125I-ET-1 binding to ETA receptors (TE 671 cell membranes)
# T1 construct: endogenous in cells; host or cells: TE 671 cells (ATCC HTB 139)
# T1 sequence (P25101 21-427): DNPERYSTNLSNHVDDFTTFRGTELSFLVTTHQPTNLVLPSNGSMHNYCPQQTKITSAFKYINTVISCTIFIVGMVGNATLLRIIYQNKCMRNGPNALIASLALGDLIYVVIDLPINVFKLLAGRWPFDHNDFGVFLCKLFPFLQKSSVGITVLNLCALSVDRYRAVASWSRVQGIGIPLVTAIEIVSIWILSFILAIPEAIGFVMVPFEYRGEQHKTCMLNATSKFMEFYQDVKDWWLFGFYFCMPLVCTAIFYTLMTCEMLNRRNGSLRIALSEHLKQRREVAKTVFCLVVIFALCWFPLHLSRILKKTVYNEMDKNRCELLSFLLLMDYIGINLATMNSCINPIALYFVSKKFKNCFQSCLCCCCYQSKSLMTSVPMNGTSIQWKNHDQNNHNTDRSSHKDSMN
# From the text: (§1) Compounds that are potential endothelin antagonists are identified by testing their ability to compete with ^125I-labeled ET-1 for binding to human ETA receptors or ETB receptors present on isolated cell membranes. The effectiveness of the test compound as an antagonist or agonist of the biological tissue response of endothelin can also be assessed by measuring the effect on endothelin induced contraction of isolated rat thoracic aortic rings. The ability of the compounds to act as antagonists or agonists for ETB receptors can be assess by testing the ability of the compounds are to inhibit endothelin-1 induced prostacyclin release from cultured bovine aortic endothelial cells.
# A. Endothelin Binding Inhibition—Binding Test #1: Inhibition of Binding to ETA Receptors
# TE 671 cells (ATCC Accession No. HTB 139) express ETA receptors. These cells were grown to confluence in T-175 flasks. Cells from multiple flasks were collected by scraping, pooled and centrifuged for 10 min at 190×g. The cells were resuspended in phosphate buffered saline (PBS) containing 10 mM EDTA using a Tenbroeck homogenizer. The suspension was centrifuged at 4° C. at 57,800×g for 15 min, the pellet was resuspended in 5 ml of buffer A (5 mM HEPES buffer, pH 7.4 containing aprotinin (100 KIU/ml)) and then frozen and thawed once. 5 ml of Buffer B (5 mM HEPES Buffer, pH 7.4 containing 10 mM MnCl2 and 0.001% deoxyribonuclease Type 1) was added, the suspension mixed by inversion and then incubated at 37° C. for 30 minutes. The mixture was centrifuged at 57,800×g as described above, the pellet washed twice with buffer A and then resuspended in buffer C (30 mM HEPES buffer, pH 7.4 containing aprotinin (100 KIU/ml) to give a final protein concentration of 2 mg/ml and stored at −70° C. until use.
# The membrane suspension was diluted with binding buffer (30 mM HEPES buffer, pH 7.4 containing 150 mM NaCl, 5mM MgCl2, 0.5% Bacitracin) to a concentration of 8 μg/50 μl. ^125I-endothelin-1 (3,000 cpm, […]) was added to 50 μL of either: (A) endothelin-1 (for non specific binding) to give a final concentration 80 nM); (B) binding buffer (for total binding); or (C) a test compound (final concentration 1 nM to 100 μM). The membrane suspension (50 μL), containing up to 8 μg of membrane protein, was added to each of (A), (B), or (C). Mixtures were shaken, and incubated at 4° C. for 16-18 hours, and then centrifuged at […] for 25 min at 2,500×g. Alternatively, the incubation was conducted at 24° C. […] This, must be kept in mind when comparing IC50 concentrations among compounds provided herein.
# The supernatant, containing unbound radioactivity, was decanted and the pellet counted on a Genesys multiwell gamma counter. The degree of inhibition of binding (D) was calculated according to the following equation: [formula]
# Each test was generally performed in triplicate.
# [2] = target: T2, human ETB receptor (Homo sapiens, UniProt P24530); assay: Binding Test #2: inhibition of 125I-ET-1 binding to ETB receptors (transfected COS7 cell membranes); details: read-out: ETB
# T2 construct: expressed in transfected cells; host or cells: COS7 cells
# T2 sequence (P24530 27-442): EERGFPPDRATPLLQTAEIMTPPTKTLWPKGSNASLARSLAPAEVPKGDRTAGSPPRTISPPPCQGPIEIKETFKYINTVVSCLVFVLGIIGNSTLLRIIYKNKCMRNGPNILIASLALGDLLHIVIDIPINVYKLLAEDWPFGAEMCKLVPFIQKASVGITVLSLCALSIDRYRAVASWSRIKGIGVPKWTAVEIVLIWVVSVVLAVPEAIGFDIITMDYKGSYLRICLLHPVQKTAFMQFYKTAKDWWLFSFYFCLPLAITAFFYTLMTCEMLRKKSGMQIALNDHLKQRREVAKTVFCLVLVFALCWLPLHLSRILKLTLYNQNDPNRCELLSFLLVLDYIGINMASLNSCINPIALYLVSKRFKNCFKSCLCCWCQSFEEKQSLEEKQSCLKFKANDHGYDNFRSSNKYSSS
# From the text: as §1
# B. Endothelin Binding Inhibition—Binding Test #2: Inhibition of Binding to ETB Receptors
# COS7 cells were transfected with DNA encoding the ETB receptor, The resulting cells, which express the human ETB receptor, were grown to confluence in T-150 flasks. Membrane was prepared as described above. The binding assay was performed as described above using the membrane preparation diluted with binding buffer to a concentration of 1 μg/50 μl.
# Briefly, the COS7 cells, described above, that had been transfected with DNA encoding the ETB receptor and express the human ETB receptor on their surfaces were grown to confluence in T-1 75 flasks. Cells from multiple flasks were collected by scraping, pooled and centrifuged for 10 min at 190×g. The cells were resuspended in phosphate buffered saline (PBS) containing 10 mM EDTA using a Tenbroeck homogenizer. The suspension was centrifuged at 4° C. 57,800 X g for 15 min, the pellet was resuspended in 5 ml of buffer A (5mM HEPES buffer, pH 7.4 containing aprotinin (100 KIU/ml)) and then frozen and thawed once. Five ml of Buffer B (5 mM HEPES Buffer, pH 7.4 containing 10 mM MnCl2 and 0.001% deoxyribonuclease Type 1) was added, the suspension mixed by inversion and then incubated at 37° C. for 30 minutes. The mixture was centrifuged at 57,800×g as described above, the pellet washed twice with buffer A and then resuspended in buffer C (30 mM HEPES buffer, pH 7.4 containing aprotinin (100 KIU/ml) to give a final protein concentration of 2 mg/ml.
# The binding assay was performed as described above using the membrane preparation diluted to give 1 μg/50 μl of binding buffer.
# [3] = Table 1, † incubation at 24° C., read-out: ETA
# [4] = Table 1, † incubation at 24° C.
# [5] = Table 3, † incubation at 24° C., read-out: ETA
# [6] = Table 1, incubation at 4° C., read-out: ETA
smiles,measurement,setting,value
Cc1ccc(/C=C/c2sccc2S(=O)(=O)Nc2onc(C)c2Br)cc1,IC50,[1]; [3],0.26 µM
same,IC50,[2]; [4],0.413 µM
"Cc1cc(C)c(OC(N)=O)c(C)c1NC(=O)c1sccc1S(=O)(=O)Nc1onc(C)c1Cl [3-(((3-(((4-chloro-3-methyl-5-isoxazolyl)amino)sulfonyl)-2-thienyl)carbonyl)amino)-2,4,6-trimethyiphenyl carbamate]",IC50,[1]; [5],0.00545 µM
"COC(=O)Oc1c(C)cc(C)c(NC(=O)c2sccc2S(=O)(=O)Nc2onc(C)c2Cl)c1C [3-(((3-(((4-chloro-3-methyl-5-isoxazolyl)amino)sulfonyl)-2-thienyl)carbonyl)amino)-2,4,6-trimethylphenyl methyl carbonate]",IC50,[1]; [5],0.00075 µM
"CCC(=O)c1cc(C)cc(C)c1NC(=O)c1sccc1S(=O)(=O)Nc1onc(C)c1Cl [3-(((4-chloro-3-methyl-5-isoxazolyl)amino)sulfonyl)-N-(2,4-dimethyl-6-propionylphenyl)-2-thiophenecarboxamide]",ETA/ETB selectivity,[1]; Table 3,21000^∥
same,IC50,[1]; [5],0.00061 µM
"Cc1cc(C)c(NC(=O)c2sccc2S(=O)(=O)Nc2onc(C)c2Cl)c(C(=O)C2CCCCC2)c1 [3-(((4-chloro-3-methyl-5-isoxazolyl)amino)sulfonyl)-N-(2-(cyclohexylcarbonyl)-4,6-dimethylphenyl)-2-thiophenecarboxamide]",ETA/ETB selectivity,[1]; Table 3,1300^∥
same,IC50,[1]; [5],0.0149 µM
Cc1noc(NS(=O)(=O)c2cc(Br)c(Cl)s2)c1Br [4-bromo-5-chloro-N-(4-Bromo-3-methyl-5-isoxazolyl)-thiophene-2-sulfonamide],IC50,[1]; [6],0.359 µM
same,IC50,"[2]; Table 1, incubation at 4° C.",2.67 µM
Cc1cc(NS(=O)(=O)c2ccc(-c3ccon3)s2)on1 [5-(3-isoxazolyl)-N-(3-methyl-5-isoxazolyl)-2-thiophenesulfonamide],IC50,[1]; [6],5.6 µM
same,IC50,"[2]; Table 1, incubation at 4° C.",6.7 µM
Cc1noc(NS(=O)(=O)c2cccn2-c2ccc(-c3ccccc3)cc2)c1Br [(4-bromo-3-methyl-5-isoxazolyl)-1-(4′-biphenyl)pyrrole-2-sulfonamide],IC50,[1]; [6],9.17 µM
same,IC50,"[2]; Table 1, incubation at 4° C.",7.84 µM
"Cc1noc(NS(=O)(=O)c2ccsc2NC(=O)Nc2sccc2S(=O)(=O)Nc2onc(C)c2C)c1C [N,N′-bis{3-[3,4-dimethyl-5-isoxazolyl)aminosulfonyl]thien-2-yl}urea]",IC50,[1]; [6],1.01 ± 1.03 µM
same,IC50,[1]; [3],2.7 µM
same,IC50,"[2]; Table 1, incubation at 4° C.",3.7 ± 2.7 µM
same,IC50,[2]; [4],5.9 µM
"Cc1noc(NS(=O)(=O)c2ccsc2NC(=O)Nc2sccc2S(=O)(=O)Nc2onc(C)c2Br)c1Br [N,N′-bis{3-[(4-bromo-3-methyl-5-isoxazolyl)aminosulfonyl)thien-2-yl} urea]",IC50,[1]; [6],0.0692 µM
same,IC50,[1]; [3],0.295 µM
same,IC50,"[2]; Table 1, incubation at 4° C.",0.29 µM
same,IC50,[2]; [4],1.19 µM
"CC(=O)c1cc(C)cc(C)c1NC(=O)c1sc(C)cc1S(=O)(=O)Nc1onc(C)c1Cl [N-(2-acetyl-4,6-dimethylphenyl)-3-(((4-chloro-3-methyl-5-isoxazolyl)amino)sulfonyl)-5-methyl-2-thiophenecarboxamide]",ETA/ETB selectivity,[1]; Table 3,9000^∥
same,IC50,[1]; [5],0.00294 µM
"Cc1cc(C)c(NC(=O)c2sccc2S(=O)(=O)Nc2onc(C)c2Cl)c(C(=O)c2ccccc2)c1 [N-(2-benzoyl-4,6-dimethylphenyl)-3-(((4-chloro-3-methyl-5-isoxazolyl)amino)sulfonyl)-2-thiophenecarboxamide]",ETA/ETB selectivity,[1]; Table 3,6000^∥
same,IC50,[1]; [5],0.00426 µM
"Cc1noc(NS(=O)(=O)c2ccsc2C(=O)Oc2ccc3c(c2)OCO3)c1C [N-(3,4-dimenthyl-5-isoxazolyl)-2-[3,4-(methylenedioxy)phenox] [N-(3,4-dimenthyl-5-isoxazolyl)-2-[3,4-(methylenedioxy)phenoxycarbonyl]thiophene-3-sulfonamide]",IC50,[1]; [3],6.1 µM
same,IC50,[2]; [4],> 50 µM
"Cc1noc(NS(=O)(=O)c2ccsc2C(=O)Nc2ccccc2)c1C [N-(3,4-dimethyl-5-isoxazolyl)-2-(N-phenylaminocarbonyl)thiophene-3-sulfonamide]",IC50,[1]; [6],0.0182 µM
same,IC50,"[2]; Table 1, incubation at 4° C.",~170 µM
"COC(=O)c1sccc1S(=O)(=O)Nc1onc(C)c1C [N-(3,4-dimethyl-5-isoxazolyl)-2-(carbomethoxy)thiophene-3-sulfonamide]",IC50,[1]; [6],0.367 µM
"Cc1noc(NS(=O)(=O)c2ccsc2C(=O)O)c1C [N-(3,4-dimethyl-5-isoxazolyl)-2-(carboxyl)thiophene-3-sulfonamide]",IC50,[1]; [6],2.64 µM
same,IC50,"[2]; Table 1, incubation at 4° C.",> 100 µM
"Cc1noc(NS(=O)(=O)c2ccccc2-c2ccccc2)c1C [N-(3,4-dimethyl-5-isoxazolyl)-2-biphenylsulfonamide]",IC50,"[1]; Table 2, incubation at 4° C., read-out: ETA",0.0083 ± 0.0014 µM
same,IC50,[1]; read-out: IC50 for ETA receptors,~0.008 µM
same,IC50,"[2]; Table 2, incubation at 4° C.",12.8 µM
"Cc1noc(NS(=O)(=O)c2ccco2)c1C [N-(3,4-dimethyl-5-isoxazolyl)furan-2-sulfonamide]",IC50,[1]; [6],3.13 µM
Cc1noc(NS(=O)(=O)c2cc(S(=O)(=O)c3ccccc3)cs2)c1Br [N-(4-Bromo-3-methyl-5-isoxazolyl)-4-benzenesulfonylthiophene-2-sulfonamide],IC50,[1]; [6],0.383 µM
Cc1ccc(OC(=O)c2sccc2S(=O)(=O)Nc2onc(C)c2Br)cc1 [N-(4-bromo-3-methyl-5-isoxazolyl)-2-[(4-methylphenoxy)carbonyl]thiophene-3-sulfonamide],IC50,[1]; [3],122 µM
"COC(=O)c1cc(OC)c(OC)cc1NC(=O)c1sccc1S(=O)(=O)Nc1onc(C)c1Cl [N-(4-chloro-3-methyl-5-isoxazolyl)2-{[4,5-dimethoxy-2,4,5-di] [N-(4-chloro-3-methyl-5-isoxazolyl)2-{[4,5-dimethoxy-2,4,5-dimethoxy-2-methoxycarbonyl)phenyl]phenylaminocarbonyl}thiophene-3-sulfonamide]",IC50,[1]; [3],3.8 µM
